The target in assay [1] is β-catenin/Tcf4 interaction (Homo sapiens (Human), UniProt P35222). The assay is described as follows: Fluorescence polarization (FP) competitive inhibition assay, β-catenin/Tcf4. Format: binding. Here is the method: Experiments were performed in 96-well Microfluor 2 black plates (Waltham, Mass.), and the samples were read by a Synergy 2 plate reader (Biotek, Winooski, Vt.). […] The final reaction volume is 100 μL.
In the foregoing equation, mP, is the signal of the positive control; mPbound is the signal of the negative control; and mP is the signal of the tested inhibitor compound.
In general terms: Polarisation of emitted light reports the rotation of a fluorescent probe.

Assay [2] relates to HCT 116 colon cancer cell line. The assay is described as follows: MTS-based cell proliferation inhibition assay. As to conditions: 72 h, dose-dependent (FIG. 2).
Description: The cell proliferation agent, 3-(4,5-dimethylthiazol-2-yl)-5-(3-carboxymethoxyphenyl)-2-(4-sulfophenyl)-2H-tetrazolium (“MTS”), was purchased from Promega (Madison, Wis.) and phenazinemethosulfate from Sigma-Aldrich (St. Louis, Mo.). Cultured cell lines were seeded in 96-well plates at 3×10^3 cells/well, maintained overnight at 37° C., and incubated in the presence of the tested compounds at various concentrations. […] Cells were incubated in 10 μL of this solution at 37° C. for 3 h and the UV absorption at 490 nm was measured. Vehicle-treated cells was used as the negative control. The IC50 values and the Hill slopes were generated using Graphpad Prism 5.0. All data were expressed as mean±SD.
Setting [3] is: Table 2, mean ± standard deviation (n=3), read-out: Ki FP.

From patent publication US9284299B2, “Substituted 1H-indazol-1-ol analogs as inhibitors of beta catenin/Tcf protein-protein interactions” (UNIVERSITY OF UTAH RESEARCH FOUNDATION, priority 2012, dated 2016) come the findings set out here.

Like-named read-outs stand apart in the source and are kept apart here.

Chain of β-catenin/Tcf4 interaction (P35222 138-686): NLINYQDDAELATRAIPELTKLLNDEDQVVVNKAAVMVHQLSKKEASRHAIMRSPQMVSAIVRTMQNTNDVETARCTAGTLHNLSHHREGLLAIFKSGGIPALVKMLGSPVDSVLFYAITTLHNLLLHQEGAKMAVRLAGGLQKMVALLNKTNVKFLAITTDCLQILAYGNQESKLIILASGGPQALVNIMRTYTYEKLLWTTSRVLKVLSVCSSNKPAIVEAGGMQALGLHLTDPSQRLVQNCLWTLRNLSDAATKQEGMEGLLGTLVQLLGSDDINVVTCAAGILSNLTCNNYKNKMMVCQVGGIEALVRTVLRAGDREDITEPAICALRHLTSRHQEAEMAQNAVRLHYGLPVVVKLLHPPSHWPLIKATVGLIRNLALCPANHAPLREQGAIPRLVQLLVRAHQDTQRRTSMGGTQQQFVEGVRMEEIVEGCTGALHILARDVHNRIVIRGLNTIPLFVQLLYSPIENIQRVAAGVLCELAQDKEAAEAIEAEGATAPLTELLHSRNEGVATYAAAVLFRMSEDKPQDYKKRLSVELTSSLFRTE

For `COc1c(C[C@@H](C)OC(=O)Oc2ccc(O)cc2)c2c3c(C[C@@H](C)OC(=O)c4ccccc4)c(OC)c(=O)c4c(O)cc(OC)c(c5c(OC)cc(O)c(c1=O)c52)c43` [PKF115-584, reference compound], the Ki in assay [1] (setting [3]) turned out to be 17.8 ± 2.13 µM; in assay [1] (Table IV, FP assay, read-out: Ki ± SD β-catenin/Tcf4), 17.8 ± 2.13 µM.

Regarding “5-(2-(2H-TETRAZOL-5-YL)ETHYL)-1H-INDAZOL-1-OL [Compound 12]”, the “Inhibition of proliferation of colon cancer cell line HCT116” value in assay [2] is listed as “inhibit the proliferation”. Regarding `O=c1[nH]c(Cc2ccc3c(c2)nnn3O)no1` [Compound 2, 3-((1-HYDROXY-1H-BENZO[D][1,2,3]TRIAZOL-5-YL)METHYL)-1,2,4-OXADIAZOL-5(4H)-ONE], in assay [1] (setting [3]), the Ki turned out to be 165.4 ± 1.45 µM.

For `O=c1[nH]c(Cc2ccc3c(cnn3O)c2)no1` [Compound 10, 3-((1-HYDROXY-1H-INDAZOL-5-YL)METHYL)-1,2,4-OXADIAZOL-5(4H)-ONE], the Ki in assay [1] (setting [3]) turned out to be 125 ± 1.3 µM.
